Laboratory results reported in patent EP2607478A1, “Phenanthroline treated MSC” (Universiteit Twente, priority 2011, dated 2013).
Entries after “also recorded” stand apart in the source; their conditions may differ.

Tested on: MSCs
Assay: Whole genome expression analysis (Illumina microarray) of treated MSCs
Assay type: cell-based, Human
Experimental: MSCs were seeded in T25 flasks at 5000 cells/cm^2 and allowed to attach overnight in proliferation medium. […] After 48 hours, RNA was isolated as described above. From 500 ng of RNA, cRNA was synthesized using the Illumina TotalPrep RNA amplification Kit (Ambion), according to the manufacturer's protocol and the quality of RNA and cRNA was verified on a Bioanalyzer 2100 (Agilent). Microarrays were performed using Illumina HT-12 v4 expression Beadchips, according to the manufacturer's protocol. Briefly, 750 ng of cRNA was hybridized on the array overnight after which the array was washed and blocked. Then, by addition of streptavidin Cy-3 a fluorescent signal was developed. Arrays were scanned on an Illumina iScan reader and raw intensity values were background corrected in GenomeStudio (Illumina). Further data processing and statistical testing were performed with R and Bioconductor statistical software (www.bioconductor.org), using package lumi. Raw intensity values were transformed using variance stabilization and a quantile normalization was performed. A linear modelling approach with empirical Bayesian methods, as implemented in Limma package (54), was applied for differential expression analysis of the resulting probe-level expression values. A gene list, containing only those genes with an absolute 1.5-fold change between different treatments, was uploaded to Ingenuity Pathway Analysis (IPA) software and used for core analysis. Pathways or networks with a p-value of 0.05 were considered statistically significant.

Structure (SMILES): c1cnc2c(c1)ccc1cccnc12 [PHE, 1, 10-phenanthroline]
- interleukin-8 (Il-8) gene expression (MSCs treated for two days, 150 µM DFO or 200 µM PHE): highly induced
- expression of HRE-containing genes (metabolism, cell growth and survival, endothelial genes) (MSCs treated for two days, 150 µM DFO or 200 µM PHE, relative to basic medium): most genes were strongest induced; also recorded: markedly induced higher expression
- expression of RelA (PHE compared to hypoxia or DFO-treated cells): higher
- expression of P300 (PHE-treated cells): higher expression
- logFC(D142_PHE - D142_BAS) BNIP3L (ProbeID ILMN 2045419): 2,33
- logFC(D142_PHE - D142_BAS) CYTH2 (ProbeID ILMN 3188106): 2,19
- logFC(D142_PHE - D142_BAS) HIST1H2BD (ProbeID ILMN_1651496): 3,85
- logFC(D142_PHE - D142_BAS) MGP (ProbeID ILMN_1651958): -2,09
- logFC(D142_PHE - D142_BAS) PFKFB4 (ProbeID ILMN_1653292): 4,21
- logFC(D142_PHE - D142_BAS) HES4 (ProbeID ILMN_1653466): 2,11
- logFC(D142_PHE - D142_BAS) (ProbeID ILMN_1655796): 2,37
- logFC(D142_PHE - D142_BAS) ELL2 (ProbeID ILMN_1655930): 2,00
- logFC(D142_PHE - D142_BAS) PLAU (ProbeID ILMN_1656057, PHE vs BAS): -3,95
- logFC(D142_PHE - D142_BAS) DUSP5 (ProbeID ILMN_1656501): 3,07
- logFC(D142_PHE - D142_BAS) C1orf198 (ProbeID ILMN_1657683, PHE vs BAS): -2,35
- logFC(D142_PHE - D142_BAS) STMN1 (ProbeID ILMN_1657796): -2,32
- logFC(D142_PHE - D142_BAS) LOC728946 (ProbeID ILMN_1657962): -2,02
- logFC(D142_PHE - D142_BAS) SLC2A1 (ProbeID ILMN_1659027): 4,08
- logFC(D142_PHE - D142_BAS) HIST2H2AA3 (ProbeID ILMN_1659047): 3,78
- logFC(D142_PHE - D142_BAS) PPP1R15A (ProbeID ILMN_1659936): 2,65
- logFC(D142_PHE - D142_BAS) C7orf68 (ProbeID ILMN_1659990): 3,65
- logFC(D142_PHE - D142_BAS) CDCA2 (ProbeID ILMN_1660654): 2,66
- logFC(D142_PHE - D142_BAS) PFKFB3 (ProbeID ILMN_1660847): 3,69
- logFC(D142_PHE - D142_BAS) LOC648210 (ProbeID ILMN_1661346): -2,02
- logFC(D142_PHE - D142_BAS) DDIT4 (ProbeID ILMN_1661599): 4,48
- logFC(D142_PHE - D142_BAS) TFPI (ProbeID ILMN_1662619): 2,06
- logFC(D142_PHE - D142_BAS) CDC20 (ProbeID ILMN_1663390, PHE vs BAS): -2,55
- logFC(D142_PHE - D142_BAS) MGC87042 (ProbeID ILMN_1663575, PHE vs BAS): -2,77
- logFC(D142_PHE - D142_BAS) PPP1R14C (ProbeID ILMN_1664855): 2,96
- logFC(D142_PHE - D142_BAS) ERRFI1 (ProbeID ILMN_1665510): 3,36
- logFC(D142_PHE - D142_BAS) TNFRSF10D (ProbeID ILMN_1666022): 3,48
- logFC(D142_PHE - D142_BAS) CDKN3 (ProbeID ILMN_1666305, PHE vs BAS): -2,37
- logFC(D142_PHE - D142_BAS) GCNT1 (ProbeID ILMN_1666545): -2,01
- logFC(D142_PHE - D142_BAS) IL8 (ProbeID ILMN_1666733): 5,35
- logFC(D142_PHE - D142_BAS) PTGIS (ProbeID ILMN_1667692): -2,11
- logFC(D142_PHE - D142_BAS) PPFIA4 (ProbeID ILMN_1667791): 2,71
- logFC(D142_PHE - D142_BAS) TNS3 (ProbeID ILMN_1667893, PHE vs BAS): -2,61
- logFC(D142_PHE - D142_BAS) OAF (ProbeID ILMN_1668345): -2,06
- logFC(D142_PHE - D142_BAS) LOC732165 (ProbeID ILMN_1668861): 2,33
- logFC(D142_PHE - D142_BAS) LOC728946 (ProbeID ILMN_1669119, PHE vs BAS): -2,56
- logFC(D142_PHE - D142_BAS) ILF3 (ProbeID ILMN_1669584): -2,03
- logFC(D142_PHE - D142_BAS) CKB (ProbeID ILMN_1671478): 2,73
- logFC(D142_PHE - D142_BAS) ACTA2 (ProbeID ILMN_1671703, PHE vs BAS): -3,04
- logFC(D142_PHE - D142_BAS) AVPI1 (ProbeID ILMN_1671731): 2,16
- logFC(D142_PHE - D142_BAS) JAM2 (ProbeID ILMN_1672350): 2,37
- logFC(D142_PHE - D142_BAS) KISS1R (ProbeID ILMN_1673521): 3,05
- logFC(D142_PHE - D142_BAS) TFRC (ProbeID ILMN_1674243): 2,40
- logFC(D142_PHE - D142_BAS) ANGPTL4 (ProbeID ILMN_1674376): 2,49
- logFC(D142_PHE - D142_BAS) MYL9 (ProbeID ILMN_1675062): -2,11
- logFC(D142_PHE - D142_BAS) MT3 (ProbeID ILMN_1675947): 4,91
- logFC(D142_PHE - D142_BAS) MSRB3 (ProbeID ILMN_1676088, PHE vs BAS): -2,43
- logFC(D142_PHE - D142_BAS) INSIG2 (ProbeID ILMN_1676629): 2,16
- logFC(D142_PHE - D142_BAS) TNFRSF11B (ProbeID ILMN_1676663, PHE vs BAS): -3,04
- logFC(D142_PHE - D142_BAS) YEATS2 (ProbeID ILMN_1676899): 2,21
- logFC(D142_PHE - D142_BAS) PTGS2 (ProbeID ILMN_1677511): 2,13
- logFC(D142_PHE - D142_BAS) CHN1 (ProbeID ILMN_1678493, PHE vs BAS): -2,73
- logFC(D142_PHE - D142_BAS) THBS2 (ProbeID ILMN_1678842): -2,24
- logFC(D142_PHE - D142_BAS) SLC3A2 (ProbeID ILMN_1679041): 2,15
- logFC(D142_PHE - D142_BAS) CLK1 (ProbeID ILMN_1679727): 2,72
- logFC(D142_PHE - D142_BAS) MAFF (ProbeID ILMN_1680139): 3,87
- logFC(D142_PHE - D142_BAS) C5orf13 (ProbeID ILMN_1680738, PHE vs BAS): -2,41
- logFC(D142_PHE - D142_BAS) GPRC5A (ProbeID ILMN_1682599): 4,51
- logFC(D142_PHE - D142_BAS) IER3 (ProbeID ILMN_1682717): 2,62
- logFC(D142_PHE - D142_BAS) RRAD (ProbeID ILMN_1683179): 2,75
- logFC(D142_PHE - D142_BAS) LOC286016 (ProbeID ILMN_1684114): 2,09
- logFC(D142_PHE - D142_BAS) GPT2 (ProbeID ILMN_1684158): 2,19
- logFC(D142_PHE - D142_BAS) COL16A1 (ProbeID ILMN_1684554): -2,06
- logFC(D142_PHE - D142_BAS) ASAP3 (ProbeID ILMN_1685441, PHE vs BAS): -2,35
- logFC(D142_PHE - D142_BAS) INHBB (ProbeID ILMN_1685714): 3,60
- logFC(D142_PHE - D142_BAS) TOP2A (ProbeID ILMN_1686097, PHE vs BAS): -3,07
- logFC(D142_PHE - D142_BAS) THBS1 (ProbeID ILMN_1686116, PHE vs BAS): -3,00
- logFC(D142_PHE - D142_BAS) VCAN (ProbeID ILMN_1687301, PHE vs BAS): -2,38
- logFC(D142_PHE - D142_BAS) BAALC (ProbeID ILMN_1687751): -2,07
- logFC(D142_PHE - D142_BAS) COLEC12 (ProbeID ILMN_1689088, PHE vs BAS): -3,75
- logFC(D142_PHE - D142_BAS) CXCL12 (ProbeID ILMN_1689111, PHE vs BAS): -3,44
- logFC(D142_PHE - D142_BAS) NIPA1 (ProbeID ILMN_1689274): 2,08
- logFC(D142_PHE - D142_BAS) STAT1 (ProbeID ILMN_1690105): -2,04
- logFC(D142_PHE - D142_BAS) PDLIM7 (ProbeID ILMN_1690125, PHE vs BAS): -2,57
- logFC(D142_PHE - D142_BAS) STAT2 (ProbeID ILMN_1690921): -2,24
- logFC(D142_PHE - D142_BAS) STAT1 (ProbeID ILMN_1691364, PHE vs BAS): -2,77
- logFC(D142_PHE - D142_BAS) MYLK (ProbeID ILMN_1691476, PHE vs BAS): -3,27
- logFC(D142_PHE - D142_BAS) STC2 (ProbeID ILMN_1691884): 3,81
- logFC(D142_PHE - D142_BAS) KLHL21 (ProbeID ILMN_1692785): 2,54
- logFC(D142_PHE - D142_BAS) PSAT1 (ProbeID ILMN_1692938): 2,74
- logFC(D142_PHE - D142_BAS) P4HA1 (ProbeID ILMN_1693334): 3,46
- logFC(D142_PHE - D142_BAS) MAP2K1 (ProbeID ILMN_1694240): 2,11
- logFC(D142_PHE - D142_BAS) PANX2 (ProbeID ILMN_1694810): 2,42
- logFC(D142_PHE - D142_BAS) KIF20A (ProbeID ILMN_1695658, PHE vs BAS): -3,25
- logFC(D142_PHE - D142_BAS) DDIT4L (ProbeID ILMN_1696537): -2,12
- logFC(D142_PHE - D142_BAS) VARS (ProbeID ILMN_1696601): -2,08
- logFC(D142_PHE - D142_BAS) TNFRSF10B (ProbeID ILMN_1699265): 2,54
- logFC(D142_PHE - D142_BAS) (ProbeID ILMN_1699644): 2,20
